Blank lines part the entries; values can stand above or below the compound they belong to. Active and inactive are the calls of the source. The rule behind the calls is not given here.
What was measured:
[1] = biological target: T1, Dual specificity calcium/calmodulin-dependent 3',5'-cyclic nucleotide phosphodiesterase 1C (Homo sapiens, UniProt Q14123); test: Inhibition of PDE1C2 (147 to 531 residues) (unknown origin) using 3H-cGMP as substrate at 8000 nM incubated for 15 mins by liquid scintillation counter analysis relative to control
T1 sequence (Q14123 whole entry, the tested form may be a part): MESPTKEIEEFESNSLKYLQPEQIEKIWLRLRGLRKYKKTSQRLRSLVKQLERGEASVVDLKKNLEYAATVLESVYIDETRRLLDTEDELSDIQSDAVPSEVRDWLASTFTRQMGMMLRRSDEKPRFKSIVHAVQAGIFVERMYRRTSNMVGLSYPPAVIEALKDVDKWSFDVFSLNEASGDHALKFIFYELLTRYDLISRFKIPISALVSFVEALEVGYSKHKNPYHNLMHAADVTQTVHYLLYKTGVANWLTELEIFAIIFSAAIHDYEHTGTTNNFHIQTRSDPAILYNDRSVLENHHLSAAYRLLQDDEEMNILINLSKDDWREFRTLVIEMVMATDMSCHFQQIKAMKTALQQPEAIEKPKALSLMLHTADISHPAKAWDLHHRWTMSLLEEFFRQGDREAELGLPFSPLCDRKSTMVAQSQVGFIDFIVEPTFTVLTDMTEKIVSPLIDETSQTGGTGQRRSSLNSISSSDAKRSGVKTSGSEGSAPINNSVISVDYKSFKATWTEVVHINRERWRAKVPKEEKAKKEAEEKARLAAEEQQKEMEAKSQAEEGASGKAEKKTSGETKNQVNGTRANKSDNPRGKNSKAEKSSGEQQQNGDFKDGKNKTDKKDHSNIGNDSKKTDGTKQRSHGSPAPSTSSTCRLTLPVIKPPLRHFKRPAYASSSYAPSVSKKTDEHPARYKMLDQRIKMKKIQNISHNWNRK

[2] = biological target: T1, Dual specificity calcium/calmodulin-dependent 3',5'-cyclic nucleotide phosphodiesterase 1C; test: Inhibition of PDE1C2 (147 to 531 residues) (unknown origin) using 3H-cGMP as substrate incubated for 15 mins by liquid scintillation counter analysis
Rattus norvegicus [3] = test: Antifibrotic activity against bile duct ligation induced Sprague-Dawley rat liver fibrosis model assessed as downregulation of collagen I expression in liver at 2.5 mg/kg,ip administrated once daily for 21 days by Western blotting analysis; format: functional, organism-based; conditions: time 21.0 day
Rattus norvegicus [4] = test: Antifibrotic activity against bile duct ligation induced Sprague-Dawley rat liver fibrosis model assessed as reduction in liver damage at 2.5 mg/kg,ip administrated once daily for 21 days by hematoxylin and eosin staining based analysis; format: functional, organism-based; conditions: time 21.0 day
Rattus norvegicus [5] = test: Antifibrotic activity against bile duct ligation induced Sprague-Dawley rat liver fibrosis model assessed as reduction in ALT level at 2.5 mg/kg,ip administrated once daily for 21 days; format: functional, organism-based; conditions: time 21.0 day
[6] = Half life in rat liver microsomes at 1.5 uM; format: ADME, Microsome
Rattus norvegicus [7] = test: Antifibrotic activity against bile duct ligation induced Sprague-Dawley rat liver fibrosis model assessed as reduction in collagen deposition at 2.5 mg/kg,ip administrated once daily for 21 days by Masson's trichome staining based analysis; format: functional, organism-based; conditions: time 21.0 day
Rattus norvegicus [8] = test: Antifibrotic activity against bile duct ligation induced Sprague-Dawley rat liver fibrosis model assessed as reduction in fibrotic lesion at 2.5 mg/kg,ip administrated once daily for 21 days by hematoxylin and eosin staining based analysis; format: functional, organism-based; conditions: time 21.0 day
Rattus norvegicus [9] = test: Antifibrotic activity against bile duct ligation induced Sprague-Dawley rat liver fibrosis model assessed as increase in cAMP level in liver at 2.5 mg/kg,ip administrated once daily for 21 days by ELISA; format: functional, organism-based; conditions: time 21.0 day
Rattus norvegicus [10] = test: Antifibrotic activity against bile duct ligation induced Sprague-Dawley rat liver fibrosis model assessed as reduction in total bile acid level at 2.5 mg/kg,ip administrated once daily for 21 days; format: functional, organism-based; conditions: time 21.0 day
Rattus norvegicus [11] = test: Antifibrotic activity against bile duct ligation induced Sprague-Dawley rat liver fibrosis model assessed as increase in cGMP level in liver at 2.5 mg/kg,ip administrated once daily for 21 days by ELISA; format: functional, organism-based; conditions: time 21.0 day
Rattus norvegicus [12] = test: Antifibrotic activity against bile duct ligation induced Sprague-Dawley rat liver fibrosis model assessed as downregulation of alpha-SMA expression in liver at 2.5 mg/kg,ip administrated once daily for 21 days by Western blotting analysis; format: functional, organism-based; conditions: time 21.0 day
Rattus norvegicus [13] = test: Antifibrotic activity against bile duct ligation induced Sprague-Dawley rat liver fibrosis model assessed as reduction in alpha-smooth muscle actin level in liver at 2.5 mg/kg,ip administrated once daily for 21 days by immunofluorescence staining based analysis; format: functional, organism-based; conditions: time 21.0 day
Rattus norvegicus [14] = test: Antifibrotic activity against bile duct ligation induced Sprague-Dawley rat liver fibrosis model assessed as reduction in AST level at 2.5 mg/kg,ip administrated once daily for 21 days; format: functional, organism-based; conditions: time 21.0 day

SMILES: CC1=C(C(=O)OCC2CCCCC2)C(c2ccc(OC(F)F)c(OCC3CC3)c2)N(/C=C/Cc2ccccc2)C(=O)N1 (stereo unspecified)
inhibition [1]: 47%

SMILES: COc1ccc(C2C(C(=O)OCC3CCCC3)=C(C)NC(=O)N2C(=O)OCC2CCCC2)cc1OC (stereo unspecified)
IC50 [2]: 42 nM

SMILES: CC1=C(C(=O)OCC2CCCCC2)C(c2ccc(OC(F)F)cc2)N(C(=O)SCc2ccccc2)C(=O)N1 (stereo unspecified)
Activity (Rattus norvegicus [3]): Active | Activity (Rattus norvegicus [4]): Active | Activity (Rattus norvegicus [5]): Active | half-life at 1.5 µM [6]: 7.1 min | Activity (Rattus norvegicus [7]): Active | Activity (Rattus norvegicus [8]): Active | Activity (Rattus norvegicus [9]): Active | Activity (Rattus norvegicus [10]): Active | IC50 [2]: 21 nM | Activity (Rattus norvegicus [11]): inactive | Activity (Rattus norvegicus [12]): Active | Activity (Rattus norvegicus [13]): Active | Activity (Rattus norvegicus [14]): Active

SMILES: CC1=C(C(=O)OCC2CCCCC2)C(c2ccc(OC(F)F)c(OC(F)F)c2)N(C(=O)OCC2CCCCC2)C(=O)N1 (stereo unspecified)
half-life at 1.5 µM [6]: 3.03 min | IC50 [2]: 7.5 nM

SMILES: COC(=O)C1=C(C)NC(=O)N(C(=O)SCc2ccccc2)C1c1ccc(OC(F)F)c(OCC2CC2)c1 (stereo unspecified)
IC50 [2]: 103 nM

SMILES: COc1ccc(C2C(C(=O)OCc3ccccc3)=C(C)NC(=O)N2C(=O)OCc2ccccc2)cc1OC (stereo unspecified)
IC50 [2]: 63 nM

SMILES: CC1=C(C(=O)OCC2CCCCC2)C(c2ccc(OC(F)F)c(OCC3CC3)c2)N(Cc2cccc(F)c2)C(=O)N1 (stereo unspecified)
inhibition [1]: 40%

SMILES: COc1ccc(C2C(C(=O)OCC3CCCCC3)=C(C)NC(=O)N2C(=O)OCC2CCCCC2)cn1 (stereo unspecified)
IC50 [2]: 51 nM

SMILES: CC1=C(C(=O)OCC2CCCCC2)C(c2ccc(OC(F)F)c(OCC3CC3)c2)N(C(=O)OCC2CCCCC2)C(=O)N1 (stereo unspecified)
half-life at 1.5 µM [6]: 3.68 min | IC50 [2]: 2.3 nM

SMILES: CC(=O)N1C(=O)NC(C)=C(C(=O)OCC2CCCCC2)C1c1ccc(OC(F)F)c(OCC2CC2)c1 (stereo unspecified)
IC50 [2]: 2320 nM

SMILES: CC1=C(C(=O)OCC2CCCCC2)C(c2ccc(OC(F)F)c(OCC3CC3)c2)N(C(=O)/C=C/c2ccccc2)C(=O)N1 (stereo unspecified)
IC50 [2]: 6060 nM

SMILES: CC1=C(C(=O)OCC2CCCCC2)C(c2cccc(Oc3ccccc3)c2)NC(=O)N1 (stereo unspecified)
IC50 [2]: 2940 nM

SMILES: COC(=O)C1=C(C)NC(=O)N(C(=O)OCC2CCCCC2)C1c1ccc(OC(F)F)c(OCC2CC2)c1 (stereo unspecified)
IC50 [2]: 37 nM

Next, values leading:

inhibition [1]: 45%
SMILES: CC1=C(C(=O)OCC2CCCCC2)C(c2ccc(OC(F)F)c(OCC3CC3)c2)N(C)C(=O)N1 (stereo unspecified)

IC50 [2]: 3590 nM
SMILES: COc1ccc(C2NC(=O)NC(C)=C2C(=O)OCC2CCCCC2)cc1OC (stereo unspecified)

IC50 [2]: 195 nM
SMILES: CC1=C(C(=O)OCC2CCCCC2)C(c2ccc(Cl)nc2)N(C(=O)OCC2CCCCC2)C(=O)N1 (stereo unspecified)

IC50 [2]: 42 nM
SMILES: CC1=C(C(=O)OCC2CCCCC2)C(c2cccc(OCC3CC3)c2)N(C(=O)SCc2ccccc2)C(=O)N1 (stereo unspecified)

IC50 [2]: 4690 nM
SMILES: CCNC(=O)N1C(=O)NC(C)=C(C(=O)OCC2CCCCC2)C1c1ccc(OC(F)F)c(OCC2CC2)c1 (stereo unspecified)

half-life at 1.5 µM [6]: 6.1 min | IC50 [2]: 5.8 nM
SMILES: CC1=C(C(=O)OCC2CCCCC2)C(c2ccc(OC(F)F)c(OCC3CC3)c2)N(C(=S)Oc2ccccc2)C(=O)N1 (stereo unspecified)

half-life at 1.5 µM [6]: 2.1 min | IC50 [2]: 5.9 nM
SMILES: COc1ccc(C2C(C(=O)OCC3CCCCC3)=C(C)NC(=O)N2C(=O)OCC2CCCCC2)cc1OC (stereo unspecified)

From ChEMBL document CHEMBL5506023, “Design, Synthesis, and Evaluation of Dihydropyrimidine Derivatives as Selective PDE1 Inhibitors for the Treatment of Liver Fibrosis” (J Med Chem, 2024)
